Patent publication US20240101544A1, “INHIBITORS OF QPCTL AND QPCT” (priority 2022, published 2024)
pIC50: −log10 of the molar value.

Assays:
[1] = target: T1, QPCTL (Homo sapiens (Human), UniProt Q9NXS2); experiment: QPCTL Enzymatic Activity Assay (coupled-enzyme fluorescent assay, H-Gln-AMC substrate); assay type: biochemical; settings: recombinant truncated human QPCTL 10-12 nM, 10 μM H-Gln-AMC; read-out: QPCTL Inhibition IC50
Protocol: Protein expression was induced when the bacterial culture OD600 was approximately 0.7 using 1 mM IPTG and the cells incubated at 20° C. for approximately 16 hours. The QPCTL was purified using nickel column purification, digested by TEV, followed by a second nickel column purification. The protein was further purified by size-exclusion chromatography using a Superdex™ 75 column. The final protein was concentrated using ultrafiltration tubes at a molecular weight cutoff of 10 kilodaltons and stored frozen in protein buffer (25 mM Tris pH 8.3, 150 mM NaCl).
QPCTL activity was measured in a coupled-enzyme assay using the QPCTL substrate, glutamine-7-amido-4-methylcoumarin (H-Gln-AMC, Bachem), which is converted to pyroglutamyl-AMC by QPCTL. Pyroglutamyl-AMC is then converted to the fluorescent molecule, AMC, by incubation with the human enzyme pyroglutamyl peptidase-1. […] Final concentrations of DMSO and test compounds were 2% and 30-100 μM, respectively. Following the incubation, H-Gln-AMC substrate was diluted in assay buffer and added to each well for a final concentration of 10 μM. The reaction was incubated for 60 min at 37° C., before stopping it by boiling at 100° C. for 5 minutes and cooling the plate at 4° C. for 3 minutes. […] Following incubation, the fluorescence was measured with a plate reader using excitation at 380 nm and emission at 460 nm. […] Concentration-response-curves and IC50 values (Table 17) were generated using curve fit software.
Target sequence in this assay (Q9NXS2 53-382): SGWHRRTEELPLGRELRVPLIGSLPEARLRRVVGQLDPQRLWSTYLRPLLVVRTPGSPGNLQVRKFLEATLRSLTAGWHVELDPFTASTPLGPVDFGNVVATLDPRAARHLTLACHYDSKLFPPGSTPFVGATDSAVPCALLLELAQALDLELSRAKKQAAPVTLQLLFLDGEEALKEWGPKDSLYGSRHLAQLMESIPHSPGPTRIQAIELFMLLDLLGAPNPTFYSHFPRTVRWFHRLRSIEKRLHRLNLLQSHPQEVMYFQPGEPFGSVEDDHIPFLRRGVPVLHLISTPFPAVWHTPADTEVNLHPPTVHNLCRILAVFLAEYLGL

[2] = target: T1, QPCTL; experiment: Inhibition of Cellular QPCTL Activity - Imaging Assay, CC2C6 anti-CD47 staining of DLD-1 cells; assay type: cell-based; settings: 72 hours, CC2C6 anti-CD47 high-content imaging
Protocol: Inhibition of Cellular QPCTL Activity—Imaging Assay
The cells were incubated for 72 hours at 37° C. and 5% CO2. […] After primary antibody staining, the cells were fixed with 4% paraformaldehyde in the incubation buffer for 15 minutes at room temperature. […] Cells were analyzed on a ImageXpress Pico Automated Cell Imaging System (Molecular Devices) using 10× objective (3×3 fields).
Target sequence in this assay (Q9NXS2 whole entry, the tested form may be a part): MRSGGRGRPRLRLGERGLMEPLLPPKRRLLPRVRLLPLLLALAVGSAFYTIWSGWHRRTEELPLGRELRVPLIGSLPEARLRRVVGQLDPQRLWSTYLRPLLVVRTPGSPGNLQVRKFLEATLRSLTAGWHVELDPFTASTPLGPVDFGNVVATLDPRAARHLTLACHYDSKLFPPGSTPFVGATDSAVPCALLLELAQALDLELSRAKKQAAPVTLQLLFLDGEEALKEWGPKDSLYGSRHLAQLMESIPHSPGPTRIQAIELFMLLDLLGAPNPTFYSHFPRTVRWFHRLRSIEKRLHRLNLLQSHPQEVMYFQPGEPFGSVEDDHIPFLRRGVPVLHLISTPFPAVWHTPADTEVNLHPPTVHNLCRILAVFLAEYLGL

[3] = target: QPCT (rhQPCT) (Homo sapiens (Human), UniProt Q16769); experiment: QPCT Enzymatic Activity Assay (coupled-enzyme fluorescent assay, H-Gln-AMC substrate); assay type: biochemical; settings: rhQPCT 10-12 nM, 10 μM H-Gln-AMC; read-out: QPCT Inhibition IC50
QPCT (rhQPCT), sequence (Q16769 29-361): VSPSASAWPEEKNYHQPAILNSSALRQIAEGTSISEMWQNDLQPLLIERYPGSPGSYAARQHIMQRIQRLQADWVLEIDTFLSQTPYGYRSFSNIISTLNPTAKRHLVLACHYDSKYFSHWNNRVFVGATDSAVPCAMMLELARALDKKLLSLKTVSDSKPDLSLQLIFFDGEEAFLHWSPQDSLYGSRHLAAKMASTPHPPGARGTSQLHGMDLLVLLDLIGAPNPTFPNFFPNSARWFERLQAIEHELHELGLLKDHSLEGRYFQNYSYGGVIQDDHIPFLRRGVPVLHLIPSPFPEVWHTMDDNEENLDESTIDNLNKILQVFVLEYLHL
Protocol: QPCT activity was measured in a coupled-enzyme assay using the QPCT substrate, glutamine-7-amido-4-methylcoumarin (H-Gln-AMC, Bachem), which is converted to pyroglutamyl-AMC by QPCT. Pyroglutamyl-AMC is then converted to the fluorescent molecule, AMC, by incubation with the human enzyme pyroglutamyl peptidase-1 (PGPEP-1). […] Following the incubation, H-Gln-AMC substrate was diluted in assay buffer and added to each well for a final concentration of 10 μM. The reaction was incubated for 60 min at 37° C., before stopping it by boiling at 100° C. for 5 minutes and cooling the plate at 4° C. for 3 minutes. […] Following incubation, the fluorescence was measured with a plate reader using excitation at 380 nm and emission at 460 nm. […] Concentration-response-curves and IC50 values (Table 17) were generated using Collaborative Drug Discovery software.

Row | pIC50 [1] | pIC50 [2] | pIC50 [3] | Structure (SMILES)
1 | > 7.00 | > 7.00 | > 7.00 | Cn1cnnc1C1CCN(c2c(-c3ccc(F)nc3)ccc(OC3CCOC3)c2C#N)CC1 (single isomer, unassigned) [Example 88, 3-(6-fluoropyridin-3-yl)-2-(4-(4-methyl-4H-1,2,4-triazol-3-yl)piperidin-1-yl)-6-((tetrahydrofuran-3-yl)oxy)benzonitrile]
2 | > 7.00 | > 7.00 | > 7.00 | CN1CCC(Oc2ccc(-c3ccc(F)nc3)c(N3CCC(c4nncn4C)CC3)c2C#N)C1 (single isomer, unassigned) [Example 90, 3-(6-fluoropyridin-3-yl)-2-(4-(4-methyl-4H-1,2,4-triazol-3-yl)piperidin-1-yl)-6-((1-methylpyrrolidin-3-yl)oxy)benzonitrile]
3 | > 7.00 | 6.00 to 7.00 | > 7.00 | CN1CCC(Oc2ccc(-c3ccc(F)nc3)c(N3CCC(c4nncn4C)CC3)c2C#N)C1 (single isomer, unassigned) [Example 91, 3-(6-fluoropyridin-3-yl)-2-(4-(4-methyl-4H-1,2,4-triazol-3-yl)piperidin-1-yl)-6-((1-methylpyrrolidin-3-yl)oxy)benzonitrile]
4 | > 7.00 | 6.00 to 7.00 | > 7.00 | Cn1cnnc1C1CCN(c2c(-c3ccc(F)nc3)ccc(-c3cnn(C4CCNCC4)c3)c2C#N)CC1 [Example 42, 3-(6-fluoropyridin-3-yl)-2-(4-(4-methyl-4H-1,2,4-triazol-3-yl)piperidin-1-yl)-6-(1-(piperidin-4-yl)-1H-pyrazol-4-yl)benzonitrile]
5 | > 7.00 | > 7.00 | > 7.00 | Cn1ccc(-c2ccc(-c3ccc(F)nc3)c(N3CCC(c4nncn4C)CC3)c2C#N)n1 [Example 43, 3-(6-fluoropyridin-3-yl)-6-(1-methyl-1H-pyrazol-3-yl)-2-(4-(4-methyl-4H-1,2,4-triazol-3-yl)piperidin-1-yl)benzonitrile]
6 | > 7.00 | > 7.00 | > 7.00 | Cn1cnnc1C1CCN(c2c(-c3ccc(F)nc3)ccc(-c3ccnc(N)c3)c2C#N)CC1 [Example 44, 6-(2-aminopyridin-4-yl)-3-(6-fluoropyridin-3-yl)-2-(4-(4-methyl-4H-1,2,4-triazol-3-yl)piperidin-1-yl)benzonitrile]
7 | > 7.00 | > 7.00 | > 7.00 | Cn1cnnc1C1CCN(c2c(-c3ccc(F)nc3)ccc(-c3cc[nH]n3)c2C#N)CC1 [Example 45, 3-(6-fluoropyridin-3-yl)-2-(4-(4-methyl-4H-1,2,4-triazol-3-yl)piperidin-1-yl)-6-(1H-pyrazol-3-yl)benzonitrile]
8 | > 7.00 | 6.00 to 7.00 | > 7.00 | Cc1cc(-c2cccc(C#N)c2N2CCC(c3nncn3C)CC2)cnn1 [Example 46, 2-(4-(4-methyl-4H-1,2,4-triazol-3-yl)piperidin-1-yl)-3-(6-methylpyridazin-4-yl)benzonitrile]
9 | > 7.00 | > 7.00 | > 7.00 | Cc1cc(-c2cccc(C#N)c2N2CCC(c3nncn3C)CC2)cnc1F [Example 47, 3-(6-fluoro-5-methylpyridin-3-yl)-2-(4-(4-methyl-4H-1,2,4-triazol-3-yl)piperidin-1-yl)benzonitrile]
10 | > 7.00 | > 7.00 | > 7.00 | Cc1cc(-c2ccc(-c3cnn(C)c3)c(C#N)c2N2CCC(c3nncn3C)CC2)cnn1 [Example 48, 6-(1-methyl-1H-pyrazol-4-yl)-2-(4-(4-methyl-4H-1,2,4-triazol-3-yl)piperidin-1-yl)-3-(6-methylpyridazin-4-yl)benzonitrile]
11 | > 7.00 | 6.00 to 7.00 | > 7.00 | CN(C)CCNc1ccc(-c2ccc(F)nc2)c(N2CCC(c3nncn3C)CC2)c1C#N [Example 51, 6-((2-(dimethylamino)ethyl)amino)-3-(6-fluoropyridin-3-yl)-2-(4-(4-methyl-4H-1,2,4-triazol-3-yl)piperidin-1-yl)benzonitrile]
12 | > 7.00 | > 7.00 | > 7.00 | CN(C)CCn1cc(-c2ccc(-c3ccc(F)nc3)c(N3CCC(c4nncn4C)CC3)c2C#N)cn1 [Example 60, 6-(1-(2-(dimethylamino)ethyl)-1H-pyrazol-4-yl)-3-(6-fluoropyridin-3-yl)-2-(4-(4-methyl-4H-1,2,4-triazol-3-yl)piperidin-1-yl)benzonitrile]
13 | > 7.00 | < 5.00 | 6.00 to 7.00 | Cc1cc(-c2ccc(OCCN(C)C)c(C#N)c2N2CCC(c3nncn3C)CC2)cnn1 [Example 62, 6-(2-(dimethylamino)ethoxy)-2-(4-(4-methyl-4H-1,2,4-triazol-3-yl)piperidin-1-yl)-3-(6-methylpyridazin-4-yl)benzonitrile]
14 | > 7.00 | > 7.00 | > 7.00 | Cn1cnnc1C1CCN(c2c(-c3ccc(F)nc3)ccc(-c3cnn(C4CC4)c3)c2C#N)CC1 [Example 63, 6-(1-cyclopropyl-1H-pyrazol-4-yl)-3-(6-fluoropyridin-3-yl)-2-(4-(4-methyl-4H-1,2,4-triazol-3-yl)piperidin-1-yl)benzonitrile]
15 | > 7.00 | > 7.00 | > 7.00 | Cn1cnnc1C1CCN(c2c(-c3ccc(F)nc3)ccc(-c3cnn4c3OCCC4)c2C#N)CC1 [Example 64, 6-(6,7-dihydro-5H-pyrazolo[5,1-b][1,3]oxazin-3-yl)-3-(6-fluoropyridin-3-yl)-2-(4-(4-methyl-4H-1,2,4-triazol-3-yl)piperidin-1-yl)benzonitrile]
16 | > 7.00 | < 5.00 | > 7.00 | Cc1cc(-c2ccc(-c3cc[nH]n3)c(C#N)c2N2CCC(c3nncn3C)CC2)cnn1 [Example 65, 2-(4-(4-methyl-4H-1,2,4-triazol-3-yl)piperidin-1-yl)-3-(6-methylpyridazin-4-yl)-6-(1H-pyrazol-3-yl)benzonitrile]
17 | > 7.00 | > 7.00 | > 7.00 | Cc1cc(C#N)c(N2CCC(c3nncn3C)CC2)c(-c2ccc(F)nc2)c1 [Example 66, 3-(6-fluoropyridin-3-yl)-5-methyl-2-(4-(4-methyl-4H-1,2,4-triazol-3-yl)piperidin-1-yl)benzonitrile]
18 | > 7.00 | > 7.00 | > 7.00 | Cc1ccc(-c2ccc(F)nc2)c(N2CCC(c3nncn3C)CC2)c1C#N [Example 67, 3-(6-fluoropyridin-3-yl)-6-methyl-2-(4-(4-methyl-4H-1,2,4-triazol-3-yl)piperidin-1-yl)benzonitrile]
19 | > 7.00 | > 7.00 | > 7.00 | Cn1cnnc1C1CCN(c2c(-c3ccc(F)nc3)ccc(C3CC3)c2C#N)CC1 [Example 68, 6-cyclopropyl-3-(6-fluoropyridin-3-yl)-2-(4-(4-methyl-4H-1,2,4-triazol-3-yl)piperidin-1-yl)benzonitrile]
20 | > 7.00 | > 7.00 | > 7.00 | Cn1cnnc1C1CCN(c2c(C#N)cc(Cl)cc2-c2ccc(F)nc2)CC1 [Example 69, 5-chloro-3-(6-fluoropyridin-3-yl)-2-(4-(4-methyl-4H-1,2,4-triazol-3-yl)piperidin-1-yl)benzonitrile]
21 | < 5.00 |  | 6.00 to 7.00 | Cn1cc(-c2cnc(-c3ccc(F)nc3)c(N3CCC(c4nncn4C)CC3)c2C#N)cn1 [Example 139, 6′-fluoro-5-(1-methyl-1H-pyrazol-4-yl)-3-(4-(4-methyl-4H-1,2,4-triazol-3-yl)piperidin-1-yl)-[2,3′-bipyridine]-4-carbonitrile]

Row | Structure (SMILES) | pIC50 [1] | pIC50 [2] | pIC50 [3]
22 | COc1cnc(-c2ccc(F)nc2)c(N2CCC(c3nncn3C)CC2)c1C#N [Example 137, 6′-fluoro-5-methoxy-3-(4-(4-methyl-4H-1,2,4-triazol-3-yl)piperidin-1-yl)-[2,3′-bipyridine]-4-carbonitrile] | 5.00 to 6.00 |  | 6.00 to 7.00
23 | Cn1ccc(-c2cnc(-c3ccc(F)nc3)c(N3CCC(c4nncn4C)CC3)c2C#N)n1 [Example 138, 6′-fluoro-5-(1-methyl-1H-pyrazol-3-yl)-3-(4-(4-methyl-4H-1,2,4-triazol-3-yl)piperidin-1-yl)-[2,3′-bipyridine]-4-carbonitrile] | < 5.00 |  | 5.00 to 6.00
